From patent publication US9790174B2, “Kinase inhibitors” (Respivert Limited, priority 2013, dated 2017)

Test system: d-U937 cells
Assay: Accumulation of β catenin in d-U937 cells
Assay type: cell-based, human
Conditions: relative to Reference Compound at 1 μg/mL
Procedure: U937 cells, a human monocytic cell line, are differentiated into macrophage-type cells by incubation with PMA (100 ng/mL) for between 48 to 72 hr. The cells are then incubated with either final concentrations of test compound or vehicle for 18 hr. The induction of β-catenin by the test compounds is stopped by replacing the media with 4% formaldehyde solution. Endogenous peroxide activity is neutralised by incubating with quenching buffer (100 μL, 0.1% sodium azide, 1% H2O2 in PBS with 0.05% Tween-20) for 20 min. The cells are washed with washing buffer (200 pt; PBS containing 0.05% Tween-20) and incubated with blocking solution (200 pt; 5% milk in PBS) for 1 hr, re-washed with washing buffer (200 pt) and then incubated overnight with anti-β-catenin antibody solution (50 μL) in 1% BSA/PBS (BD, Oxford, UK).
After washing with washing buffer (3×200 pt; PBS containing 0.05% Tween-20), cells are incubated with a HRP-conjugated secondary antibody solution (100 μL) in 1% BSA/PBS (Dako, Cambridge, UK) and the resultant signal is determined colourimetrically (OD: 450 nm with a reference wavelength of 655 nm) using TMB substrate (50 μL; R&D Systems, Abingdon, UK). This reaction is stopped by addition of 1N H2SO4 solution (50 μL). Cells are then washed with washing buffer and 2% crystal violet solution (50 μL) is applied for 30 min. After washing with washing buffer (3×200 μL), 1% SDS (100 μL) is added to each well and the plates are shaken lightly for 1 hr prior to measuring the absorbance at 595 nm (Varioskan® Flash, Thermo-Fisher Scientific).
The measured OD450-655 readings are corrected for cell number by dividing the OD450-655 by the OD595 readings.

SMILES	% β-catenin induction (test compound 10 μg/mL) [%]	% β-catenin induction (test compound 5 μg/mL) [%]
COCCOCCOCCOc1cc(Nc2nccc(Oc3ccc(NC(=O)Nc4cc(C(C)(C)C)cc(NS(=O)(=O)N5CCOCC5)c4OC)c4ccccc34)n2)cc(OC)c1 [83(b), N-(5-(tert-butyl)-2-methoxy-3-(3-(4-((2-((3-methoxy-5-(2-(2-(2-methoxyethoxy)ethoxy)-ethoxy)phenyl)amino)pyrimidin-4-yl)oxy)naphthalen-1-yl)ureido)phenyl)morpholine-4-sulfonamide]	−6	–
C#Cc1cc(Nc2cc(Oc3ccc(NC(=O)Nc4cc(C(C)(C)C)cc(NS(C)(=O)=O)c4OC)c4ccccc34)ccn2)cc(C(=O)NCCOCCOCCOC)c1 [Example 54, 3-((4-((4-(3-(5-(tert-Butyl)-2-methoxy-3-(methylsulfonamido)phenyl)ureido)naphthalen-1-yl)oxy)pyridin-2-yl)amino)-5-ethynyl-N-(2-(2-(2-methoxyethoxy)ethoxy)ethyl)benzamide]	–	5
C#Cc1cc(Nc2cc(Oc3ccc(NC(=O)Nc4cc(C(C)(C)C)cc(NS(C)(=O)=O)c4OC)c4ccccc34)ccn2)cc(C(=O)N[C@H](C)COCCOCCOC)c1 [Example 68, (R)-3-((4-((4-(3-(5-(tert-Butyl)-2-methoxy-3-(methylsulfonamido)phenyl)ureido)-naphthalen-1-yl)oxy)pyridin-2-yl)amino)-5-ethynyl-N-(1-(2-(2-methoxyethoxy)ethoxy)-propan-2-yl)benzamide]	–	2
